In patent US12559529B2, “NPY2 receptor agonists” (Boehringer Ingelheim International GmbH, priority 2019, dated 2026) one finds Ki data, which are given here for five molecules.

A word on the Ki: it is a dissociation constant, usually derived from enzyme kinetics or from competition with a known ligand.

SMILES strings stand for the structures. *1 amine or outer side, *2 acyl side, *3 side chain or, on linkers, in order; H or OH if unused. Where a SMILES comes first, the peptide text is derived from it. Side-chain parts run from the residue outwards. The star is where a group is joined. C18 diacid = O=C(O)CCCCCCCCCCCCCCCCC(=O)*; γGlu = O=C(O)[C@H](CCC(=O)[*:2])N[*:1]; Isovaleryl = CC(C)CC(=O)*; AEEA = NCCOCCOCC(=O)O

In this test the target is T1, Human Neuropeptide Y2 Receptor (Homo sapiens, UniProt P49146).
T1 construct: purchased CHEMICON HTS066M
T1 sequence (P49146 1-381): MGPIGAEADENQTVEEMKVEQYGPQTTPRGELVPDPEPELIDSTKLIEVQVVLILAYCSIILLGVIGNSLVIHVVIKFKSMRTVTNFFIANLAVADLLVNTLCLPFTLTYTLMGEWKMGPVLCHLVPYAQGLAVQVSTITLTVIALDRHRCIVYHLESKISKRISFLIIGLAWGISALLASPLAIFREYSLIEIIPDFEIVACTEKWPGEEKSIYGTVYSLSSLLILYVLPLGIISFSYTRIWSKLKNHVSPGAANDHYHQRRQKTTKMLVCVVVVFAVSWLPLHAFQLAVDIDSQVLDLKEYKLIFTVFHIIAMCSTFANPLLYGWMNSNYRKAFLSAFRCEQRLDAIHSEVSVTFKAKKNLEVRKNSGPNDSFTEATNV
The test is described as follows: Radioligand binding competition assay (RLB). The settings on record: Table 3; human 125I-PYY (1-36) 0.02 nM, Y2 receptor membranes; read-out: Ki. The procedure, abridged:
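Competition binding on human Y2 receptor membranes, 0.5 μg protein/well, in 50 mM HEPES, 5 mM MgCl2, 1 mM CaCl2, pH 7.4, 0.2% ovalbumin; peptides diluted from 1 mM DMSO stocks.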
`CC(C)CC(=O)N[C@@H](C)C(=O)N1CCC[C@H]1C(=O)N[C@@H](CCC(=O)O)C(=O)N[C@@H](CCCCNC(=O)COCCOCCNC(=O)COCCOCCNC(=O)CC[C@H](NC(=O)CCCCCCCCCCCCCCCCC(=O)O)C(=O)O)C(=O)N1CCC[C@H]1C(=O)N[C@@H](CCC(=O)O)C(=O)N[C@@H](CCC(=O)O)C(=O)N[C@@H](CCC(=O)O)C(=O)N[C@@H](C)C(=O)N[C@@H](CO)C(=O)N1CCC[C@H]1C(=O)N[C@@H](CCC(=O)O)C(=O)N[C@@H](CCC(=O)O)C(=O)N[C@@H](CC(C)C)C(=O)N[C@@H](CCC(N)=O)C(=O)N[C@@H](CCCNC(=N)N)C(=O)N[C@@H](Cc1ccc(O)cc1)C(=O)N[C@@H](Cc1ccc(O)cc1)C(=O)N[C@H](C(=O)N[C@@H](C)C(=O)N[C@@H](CC(C)C)C(=O)N[C@@H](CCCNC(=N)N)C(=O)N[C@@H](Cc1c[nH]cn1)C(=O)N[C@@H](Cc1ccc(O)cc1)C(=O)N[C@@H](Cc1ccc(O)cc1)C(=O)N[C@@H](CC(N)=O)C(=O)N[C@@H](Cc1c[nH]c2ccccc12)C(=O)N[C@@H](CC(C)C)C(=O)N[C@H](C(=O)N[C@@H](CCCNC(=N)N)C(=O)N[C@@H](CCC(N)=O)C(=O)N[C@@H](CCCNC(=N)N)C(=O)N[C@@H](Cc1ccc(O)cc1)C(N)=O)[C@@H](C)O)C(C)C` [Compound 169, N{alpha-4}-(3-methylbutanoyl)-N{epsilon-7}-[2-(2-{2-[2-(2-{2-[(4S)-4-carboxy-4-(17-carboxyheptadecanamido)butanamido]ethoxy}ethoxy)acetamido]ethoxy}ethoxy)acetamido]-[4A,7K,9E,11E,18Q,22V,23A,28Y,30W,31L]hPYY (4-36)]: the Ki was found to be 2.34 nM.

In the case of `CC(C)CC(=O)N[C@@H](C)C(=O)N1CCC[C@H]1C(=O)N[C@@H](CCC(=O)O)C(=O)N[C@@H](CCCCNC(=O)COCCOCCNC(=O)COCCOCCNC(=O)CC[C@H](NC(=O)CCCCCCCCCCCCCCCCC(=O)O)C(=O)O)C(=O)N1CCC[C@H]1C(=O)N[C@@H](CCC(=O)O)C(=O)N[C@@H](CCC(=O)O)C(=O)N[C@@H](CCC(=O)O)C(=O)N[C@@H](C)C(=O)N[C@@H](CO)C(=O)N1CCC[C@H]1C(=O)N[C@@H](CCC(=O)O)C(=O)N[C@@H](CCC(=O)O)C(=O)N[C@@H](CC(C)C)C(=O)N[C@@H](CCC(=O)O)C(=O)N[C@@H](CCC(N)=O)C(=O)N[C@@H](Cc1ccc(O)cc1)C(=O)N[C@@H](Cc1ccc(O)cc1)C(=O)N[C@H](C(=O)N[C@@H](CO)C(=O)N[C@@H](CC(C)C)C(=O)N[C@@H](CCCNC(=N)N)C(=O)N[C@@H](Cc1c[nH]cn1)C(=O)N[C@@H](Cc1ccc(O)cc1)C(=O)N[C@@H](Cc1ccc(O)cc1)C(=O)N[C@@H](CC(N)=O)C(=O)N[C@@H](Cc1c[nH]c2ccccc12)C(=O)N[C@@H](CC(C)C)C(=O)N[C@H](C(=O)N[C@@H](CCCNC(=N)N)C(=O)N[C@@H](CCC(N)=O)C(=O)N[C@@H](CCCNC(=N)N)C(=O)N[C@@H](Cc1ccc(O)cc1)C(N)=O)[C@@H](C)O)C(C)C` [Compound 170, N{alpha-4}-(3-methylbutanoyl)-N{epsilon-7}-[2-(2-{2-[2-(2-{2-[(4S)-4-carboxy-4-(17-carboxyheptadecanamido)butanamido]ethoxy}ethoxy)acetamido]ethoxy}ethoxy)acetamido]-[4A,7K,9E,11E,18E,19Q,22V,28Y,30W,31L]hPYY (4-36)] (Isovaleryl-APEK([AEEA-AEEA-γGlu-C18 diacid])PEEEASPEELEQYYVSLRHYYNWLTRQRY-NH2), the Ki is 12.3 nM.

As to `CC(C)CC(=O)N[C@@H](C)C(=O)N1CCC[C@H]1C(=O)N[C@@H](CCC(=O)O)C(=O)N[C@@H](CCCCNC(=O)COCCOCCNC(=O)COCCOCCNC(=O)CC[C@H](NC(=O)CCCCCCCCCCCCCCCCC(=O)O)C(=O)O)C(=O)N1CCC[C@H]1C(=O)N[C@@H](CCC(=O)O)C(=O)N[C@@H](CCC(=O)O)C(=O)N[C@@H](CC(=O)O)C(=O)N[C@@H](CO)C(=O)N[C@@H](CO)C(=O)N1CCC[C@H]1C(=O)N[C@@H](CCC(=O)O)C(=O)N[C@@H](CCC(=O)O)C(=O)N[C@@H](CC(C)C)C(=O)N[C@@H](CCC(N)=O)C(=O)N[C@@H](CCCNC(=N)N)C(=O)N[C@@H](Cc1ccc(O)cc1)C(=O)N[C@@H](Cc1ccc(O)cc1)C(=O)N[C@H](C(=O)N[C@@H](CCC(=O)O)C(=O)N[C@@H](CC(C)C)C(=O)N[C@@H](CCCNC(=N)N)C(=O)N[C@@H](Cc1c[nH]cn1)C(=O)N[C@@H](Cc1ccc(O)cc1)C(=O)N[C@@H](Cc1ccc(O)cc1)C(=O)N[C@@H](CC(N)=O)C(=O)N[C@@H](Cc1c[nH]c2ccccc12)C(=O)N[C@@H](CC(C)C)C(=O)N[C@H](C(=O)N[C@@H](CCCNC(=N)N)C(=O)N[C@@H](CCC(N)=O)C(=O)N[C@@H](CCCNC(=N)N)C(=O)N[C@@H](Cc1ccc(O)cc1)C(N)=O)[C@@H](C)O)C(C)C` [Compound 177, N{alpha-4}-(3-methylbutanoyl)-N{epsilon-7}-[2-(2-{2-[2-(2-{2-[(4S)-4-carboxy-4-(17-carboxyheptadecanamido)butanamido]ethoxy}ethoxy)acetamido]ethoxy}ethoxy)acetamido]-[4A,7K,9E,12S,18Q,22V,23E,28Y,30W,31L]hPYY (4-36)], the Ki came out at 2.55 nM.

Consider `CC(C)CC(=O)N[C@@H](C)C(=O)N1CCC[C@H]1C(=O)N[C@@H](CCC(=O)O)C(=O)N[C@@H](CCCCNC(=O)COCCOCCNC(=O)COCCOCCNC(=O)CC[C@H](NC(=O)CCCCCCCCCCCCCCCCC(=O)O)C(=O)O)C(=O)N1CCC[C@H]1C(=O)N[C@@H](CCC(=O)O)C(=O)N[C@@H](CCC(=O)O)C(=O)N[C@@H](CC(=O)O)C(=O)N[C@@H](C)C(=O)N[C@H](C(=O)N1CCC[C@H]1C(=O)N[C@@H](CCC(=O)O)C(=O)N[C@@H](CCC(=O)O)C(=O)N[C@H](C(=O)N[C@@H](CCC(=O)O)C(=O)N[C@@H](CCCNC(=N)N)C(=O)N[C@@H](Cc1ccc(O)cc1)C(=O)N[C@@H](Cc1ccc(O)cc1)C(=O)N[C@H](C(=O)N[C@@H](CO)C(=O)N[C@@H](CC(C)C)C(=O)N[C@@H](CCCNC(=N)N)C(=O)N[C@@H](Cc1c[nH]cn1)C(=O)N[C@@H](Cc1ccc(O)cc1)C(=O)N[C@@H](Cc1ccc(O)cc1)C(=O)N[C@@H](CC(N)=O)C(=O)N[C@@H](Cc1c[nH]c2ccccc12)C(=O)N[C@@H](CC(C)C)C(=O)N[C@H](C(=O)N[C@@H](CCCNC(=N)N)C(=O)N[C@@H](CCC(N)=O)C(=O)N[C@@H](CCCNC(=N)N)C(=O)N[C@@H](Cc1ccc(O)cc1)C(N)=O)[C@@H](C)O)C(C)C)[C@@H](C)O)[C@@H](C)O` [Compound 178, N{alpha-4}-(3-methylbutanoyl)-N{epsilon-7}-[2-(2-{2-[2-(2-{2-[(4S)-4-carboxy-4-(17-carboxyheptadecanamido)butanamido]ethoxy}ethoxy)acetamido]ethoxy}ethoxy)acetamido]-[4A,7K,9E,13T,17T,18E,22V,28Y,30W,31L]hPYY (4-36)] (Isovaleryl-APEK([AEEA-AEEA-γGlu-C18 diacid])PEEDATPEETERYYVSLRHYYNWLTRQRY-NH2), for which the Ki amounted to 2.05 nM.

Take `CC(C)CC(=O)N[C@@H](C)C(=O)N1CCC[C@H]1C(=O)N[C@@H](C)C(=O)N[C@@H](CCCCNC(=O)COCCOCCNC(=O)COCCOCCNC(=O)CC[C@H](NC(=O)CCCCCCCCCCCCCCCCC(=O)O)C(=O)O)C(=O)N1CCC[C@H]1C(=O)N[C@@H](CCC(=O)O)C(=O)N[C@@H](CCC(=O)O)C(=O)N[C@@H](CC(=O)O)C(=O)N[C@@H](C)C(=O)N[C@@H](CO)C(=O)N1CCC[C@H]1C(=O)N[C@@H](C)C(=O)N[C@@H](CCC(=O)O)C(=O)N[C@@H](CC(C)C)C(=O)N[C@@H](CCC(N)=O)C(=O)N[C@@H](CCCNC(=N)N)C(=O)N[C@@H](Cc1ccc(O)cc1)C(=O)N[C@@H](Cc1ccc(O)cc1)C(=O)N[C@H](C(=O)N[C@@H](CO)C(=O)N[C@@H](CC(C)C)C(=O)N[C@@H](CCCNC(=N)N)C(=O)N[C@@H](Cc1c[nH]cn1)C(=O)N[C@@H](Cc1ccc(O)cc1)C(=O)N[C@@H](Cc1ccc(O)cc1)C(=O)N[C@@H](CC(N)=O)C(=O)N[C@@H](Cc1c[nH]c2ccccc12)C(=O)N[C@@H](CC(C)C)C(=O)N[C@H](C(=O)N[C@@H](CCCNC(=N)N)C(=O)N[C@@H](CCC(N)=O)C(=O)N[C@@H](CCCNC(=N)N)C(=O)N[C@@H](Cc1ccc(O)cc1)C(N)=O)[C@@H](C)O)C(C)C` [Compound 179, N{alpha-4}-(3-methylbutanoyl)-N{epsilon-7}-[2-(2-{2-[2-(2-{2-[(4S)-4-carboxy-4-(17-carboxyheptadecanamido)butanamido]ethoxy}ethoxy)acetamido]ethoxy}ethoxy)acetamido]-[4A,6A,7K,9E,15A,18Q,22V,28Y,30W,31L]hPYY (4-36)]: the Ki came out at 1 nM.
